Test results as given in US11339163B2, “BRaf inhibitors and use thereof for treatment of cutaneous reactions” (Lutris Pharma Ltd., priority 2017, dated 2022).

Columns and labels:
[1] = system: ERK phosphorylation in HEKa cells; assay: phospho-ERK in HEKa cells following EGFR inhibitors (Western blot); assay type: cell-based, human
Method: Human normal keratinocyte cells HEKa were purchased from Gibco Rhenium and seeded in 10 cm dishes (300,000 cells/dish) and incubated overnight at 37° C., 5% CO2. Next morning, the medium was replaced to a starvation medium for 2 hours and then the cells were treated for 2 additional hours with the test compounds. Post incubation, the cells were lyzed with RIPA and the protein extracts were analyzed by western blot for Phospho-ERK and total ERK. Untreated cells and 0.1% DMSO treated cells were used as negative control. HKGS growth factors was used as a positive control.
Western blot: 7.5 μg of total extract was loaded on 10% acrylamide gel. Following transfer, the membranes were blocked with TBST/5% skimmed milk and then incubated with Mouse anti Phospho-ERK (1:1000 in TBST 5% BSA, ON at 4° C.) and goat anti Mouse HRP (1:10,000 in TBST 5% BSA, 1-hour RT). The membranes were exposed using SuperSignal West Pico Chemiluminescent Substrate.
The HRP was then inactivated by incubating the membranes for 1 hour with 0.5% sodium azide Following washes and ECL exposure in order to ensure absence of signal, the membranes were re-blocked for 15 min with TBST/5% skimmed milk and then incubated with Rabbit anti total ERK2 (1:500 in TBST 5% BSA, ON at 4° C.), goat anti Rabbit HRP (1:5,000 in TBST 5% BSA, 1-hour RT) and finally exposed using the SuperSignal West Pico Chemiluminescent Substrate. The films were scanned and the signal were quantified using ImageJ software. The results were calculated as Phospho-ERK/total ERK.
HKGS was used as a positive control.

TAK1(h) = TAK1(h) (Homo sapiens, UniProt O43318); assay: KinaseProfiler kinase selectivity assay; assay type: biochemical
Sequence of TAK1(h) (O43318 1-303 limits assumed): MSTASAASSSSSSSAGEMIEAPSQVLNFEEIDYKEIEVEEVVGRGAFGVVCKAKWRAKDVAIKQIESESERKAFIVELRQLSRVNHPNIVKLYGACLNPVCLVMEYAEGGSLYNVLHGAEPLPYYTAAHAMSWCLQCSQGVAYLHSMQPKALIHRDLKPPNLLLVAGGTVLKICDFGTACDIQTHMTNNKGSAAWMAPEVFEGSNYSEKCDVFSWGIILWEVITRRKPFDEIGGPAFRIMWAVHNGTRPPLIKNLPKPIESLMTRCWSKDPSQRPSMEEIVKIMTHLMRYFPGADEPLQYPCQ
Method: (§1) All compounds were prepared to 50× final assay concentration in 100% DMSO. This working stock of the compound was added to the assay well as the first component in the reaction, followed by the remaining components. In the standard KinaseProfiler™ service, there is no pre-incubation step between the compound and the kinase prior to initiation of the reaction. The positive control wells contain all components of the reaction, except the compound of interest; however, DMSO (at a final concentration of 2%) is included in these wells to control for solvent effects. The blank wells contain all components of the reaction, with a reference inhibitor replacing the compound of interest. This abolishes kinase activity and establishes the base-line (0% kinase activity remaining).

EGFR(h) = EGFR(h) (Homo sapiens, UniProt P00533); assay: KinaseProfiler kinase selectivity assay; assay type: biochemical
Method: as §1

Aurora-A(h) = Aurora-A(h) (Homo sapiens, UniProt O14965); assay: KinaseProfiler kinase selectivity assay; assay type: biochemical
Method: as §1

ALK(h) = ALK(h) (Homo sapiens, UniProt Q9UM73); assay: KinaseProfiler kinase selectivity assay; assay type: biochemical
Method: as §1

MLK1(h) = MLK1(h) (Homo sapiens, UniProt P80192); assay: KinaseProfiler kinase selectivity assay; assay type: biochemical
Method: as §1

Plk3(h) = Plk3(h) (Homo sapiens, UniProt Q9H4B4); assay: KinaseProfiler kinase selectivity assay; assay type: biochemical
Sequence of Plk3(h) (Q9H4B4 whole entry): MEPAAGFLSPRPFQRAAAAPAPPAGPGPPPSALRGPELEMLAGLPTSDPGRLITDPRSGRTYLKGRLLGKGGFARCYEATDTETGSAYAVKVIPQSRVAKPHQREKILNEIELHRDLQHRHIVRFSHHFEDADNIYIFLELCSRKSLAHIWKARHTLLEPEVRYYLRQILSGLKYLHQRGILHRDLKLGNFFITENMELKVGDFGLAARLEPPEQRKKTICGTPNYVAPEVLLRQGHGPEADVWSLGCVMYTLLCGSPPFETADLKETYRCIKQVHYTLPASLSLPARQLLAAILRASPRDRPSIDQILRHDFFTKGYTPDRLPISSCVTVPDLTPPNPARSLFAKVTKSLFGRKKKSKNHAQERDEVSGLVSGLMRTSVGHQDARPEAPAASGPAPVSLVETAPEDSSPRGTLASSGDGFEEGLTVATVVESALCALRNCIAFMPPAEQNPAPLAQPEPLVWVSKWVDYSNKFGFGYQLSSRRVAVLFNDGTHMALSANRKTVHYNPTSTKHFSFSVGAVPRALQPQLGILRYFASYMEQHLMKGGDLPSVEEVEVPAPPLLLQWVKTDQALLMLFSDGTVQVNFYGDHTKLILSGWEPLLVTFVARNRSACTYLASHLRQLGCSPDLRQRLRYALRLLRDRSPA
Method: as §1

GSK3β(h) = GSK3β(h) (Homo sapiens, UniProt P49841); assay: KinaseProfiler kinase selectivity assay; assay type: biochemical
Method: as §1

mTOR(h) = mTOR(h) (Homo sapiens, UniProt P42345); assay: KinaseProfiler kinase selectivity assay; assay type: biochemical
Method: as §1

AMPKα1(h) = AMPKα1(h) (Homo sapiens, UniProt Q13131); assay: KinaseProfiler kinase selectivity assay; assay type: biochemical
Sequence of AMPKα1(h) (Q13131 whole entry): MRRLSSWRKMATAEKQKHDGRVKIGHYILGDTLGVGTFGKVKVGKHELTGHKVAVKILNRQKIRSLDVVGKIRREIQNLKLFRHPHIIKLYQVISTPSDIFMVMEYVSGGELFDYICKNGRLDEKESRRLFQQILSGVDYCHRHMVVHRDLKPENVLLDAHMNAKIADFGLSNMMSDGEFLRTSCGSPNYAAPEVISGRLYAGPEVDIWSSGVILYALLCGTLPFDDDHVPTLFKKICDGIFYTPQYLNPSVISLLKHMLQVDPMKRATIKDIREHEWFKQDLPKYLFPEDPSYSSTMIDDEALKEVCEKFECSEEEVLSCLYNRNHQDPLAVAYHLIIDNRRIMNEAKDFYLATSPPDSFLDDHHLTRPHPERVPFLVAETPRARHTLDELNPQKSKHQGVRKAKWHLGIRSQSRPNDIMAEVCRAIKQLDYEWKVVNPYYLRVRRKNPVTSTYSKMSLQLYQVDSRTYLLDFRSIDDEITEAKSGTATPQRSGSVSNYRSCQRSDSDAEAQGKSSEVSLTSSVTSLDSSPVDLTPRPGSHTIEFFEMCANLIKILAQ
Sequence of AMPKα1(h) (Q9Y478 whole entry partner): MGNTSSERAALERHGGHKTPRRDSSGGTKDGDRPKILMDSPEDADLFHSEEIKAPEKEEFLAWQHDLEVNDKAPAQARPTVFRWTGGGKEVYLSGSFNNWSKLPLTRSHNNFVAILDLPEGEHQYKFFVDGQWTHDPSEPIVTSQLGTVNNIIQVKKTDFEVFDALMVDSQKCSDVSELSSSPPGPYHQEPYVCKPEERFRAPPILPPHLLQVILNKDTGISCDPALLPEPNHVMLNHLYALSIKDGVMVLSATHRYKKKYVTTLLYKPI
Sequence of AMPKα1(h) (P54619 whole entry partner): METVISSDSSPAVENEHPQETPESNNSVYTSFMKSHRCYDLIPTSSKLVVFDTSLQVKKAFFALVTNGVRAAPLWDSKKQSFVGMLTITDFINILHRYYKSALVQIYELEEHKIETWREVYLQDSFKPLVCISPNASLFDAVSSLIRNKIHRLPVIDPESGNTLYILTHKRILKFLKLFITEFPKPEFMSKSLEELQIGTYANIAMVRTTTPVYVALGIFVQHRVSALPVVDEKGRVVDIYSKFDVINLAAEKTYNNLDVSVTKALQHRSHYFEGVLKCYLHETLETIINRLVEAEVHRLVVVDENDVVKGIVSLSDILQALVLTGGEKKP
Method: as §1

PI3 Kinase (p120γ)(h) = PI3 Kinase (p120γ)(h) (Homo sapiens, UniProt P48736); assay: KinaseProfiler kinase selectivity assay; assay type: biochemical
Sequence of PI3 Kinase (p120γ)(h) (P48736 whole entry): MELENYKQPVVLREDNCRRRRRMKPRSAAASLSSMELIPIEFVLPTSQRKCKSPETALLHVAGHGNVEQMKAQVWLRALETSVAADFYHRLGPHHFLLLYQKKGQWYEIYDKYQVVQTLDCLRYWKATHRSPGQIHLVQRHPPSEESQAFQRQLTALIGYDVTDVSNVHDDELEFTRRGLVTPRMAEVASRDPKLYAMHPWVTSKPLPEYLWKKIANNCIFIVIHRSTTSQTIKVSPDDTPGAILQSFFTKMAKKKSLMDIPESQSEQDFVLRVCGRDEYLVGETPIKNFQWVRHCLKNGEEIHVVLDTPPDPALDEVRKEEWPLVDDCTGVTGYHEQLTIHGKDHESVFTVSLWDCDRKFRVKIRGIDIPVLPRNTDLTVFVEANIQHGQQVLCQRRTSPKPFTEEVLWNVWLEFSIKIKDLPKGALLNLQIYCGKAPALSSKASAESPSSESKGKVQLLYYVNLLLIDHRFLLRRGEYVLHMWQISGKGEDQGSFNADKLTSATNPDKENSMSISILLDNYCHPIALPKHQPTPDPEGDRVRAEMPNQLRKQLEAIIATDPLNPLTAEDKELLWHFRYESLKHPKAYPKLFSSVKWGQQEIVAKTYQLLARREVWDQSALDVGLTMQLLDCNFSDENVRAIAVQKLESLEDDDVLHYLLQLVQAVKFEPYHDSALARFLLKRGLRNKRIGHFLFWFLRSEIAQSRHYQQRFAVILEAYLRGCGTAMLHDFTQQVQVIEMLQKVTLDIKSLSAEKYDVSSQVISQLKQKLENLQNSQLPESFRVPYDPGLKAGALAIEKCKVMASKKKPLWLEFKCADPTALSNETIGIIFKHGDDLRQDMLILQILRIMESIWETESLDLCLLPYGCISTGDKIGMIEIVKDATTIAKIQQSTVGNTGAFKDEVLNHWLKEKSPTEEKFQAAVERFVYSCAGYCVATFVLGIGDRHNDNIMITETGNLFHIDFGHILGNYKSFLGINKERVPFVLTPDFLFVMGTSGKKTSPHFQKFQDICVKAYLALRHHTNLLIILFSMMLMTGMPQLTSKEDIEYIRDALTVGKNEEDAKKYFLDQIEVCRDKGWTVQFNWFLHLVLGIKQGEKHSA
Method: as §1

CDK1/cyclinB(h) = CDK1/cyclinB(h) (Homo sapiens, UniProt P06493); assay: KinaseProfiler kinase selectivity assay; assay type: biochemical
Sequence of CDK1/cyclinB(h) (P06493 whole entry): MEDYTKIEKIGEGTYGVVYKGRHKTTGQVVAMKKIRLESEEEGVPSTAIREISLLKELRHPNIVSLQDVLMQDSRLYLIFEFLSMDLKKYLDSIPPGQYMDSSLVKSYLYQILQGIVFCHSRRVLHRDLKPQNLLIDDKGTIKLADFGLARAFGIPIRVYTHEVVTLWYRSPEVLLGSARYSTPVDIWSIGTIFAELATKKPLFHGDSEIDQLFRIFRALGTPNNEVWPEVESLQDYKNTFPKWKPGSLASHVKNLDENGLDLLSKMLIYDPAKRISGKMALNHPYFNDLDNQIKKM
Sequence of CDK1/cyclinB(h) (P14635 whole entry partner): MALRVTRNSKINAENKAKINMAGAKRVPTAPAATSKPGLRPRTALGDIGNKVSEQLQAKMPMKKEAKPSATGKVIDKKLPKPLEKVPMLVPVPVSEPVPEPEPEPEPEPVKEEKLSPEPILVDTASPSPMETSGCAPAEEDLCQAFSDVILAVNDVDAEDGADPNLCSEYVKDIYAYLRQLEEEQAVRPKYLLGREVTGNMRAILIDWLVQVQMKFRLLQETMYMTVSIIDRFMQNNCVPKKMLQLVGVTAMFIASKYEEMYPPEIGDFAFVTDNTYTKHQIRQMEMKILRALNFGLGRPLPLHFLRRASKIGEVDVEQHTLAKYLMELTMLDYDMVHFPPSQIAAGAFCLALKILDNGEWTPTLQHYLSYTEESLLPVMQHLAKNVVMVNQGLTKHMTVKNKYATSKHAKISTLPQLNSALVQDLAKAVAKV
Method: as §1

Mnk2(h) = Mnk2(h) (Homo sapiens, UniProt Q9HBH9); assay: KinaseProfiler kinase selectivity assay; assay type: biochemical
Sequence of Mnk2(h) (Q9HBH9 whole entry): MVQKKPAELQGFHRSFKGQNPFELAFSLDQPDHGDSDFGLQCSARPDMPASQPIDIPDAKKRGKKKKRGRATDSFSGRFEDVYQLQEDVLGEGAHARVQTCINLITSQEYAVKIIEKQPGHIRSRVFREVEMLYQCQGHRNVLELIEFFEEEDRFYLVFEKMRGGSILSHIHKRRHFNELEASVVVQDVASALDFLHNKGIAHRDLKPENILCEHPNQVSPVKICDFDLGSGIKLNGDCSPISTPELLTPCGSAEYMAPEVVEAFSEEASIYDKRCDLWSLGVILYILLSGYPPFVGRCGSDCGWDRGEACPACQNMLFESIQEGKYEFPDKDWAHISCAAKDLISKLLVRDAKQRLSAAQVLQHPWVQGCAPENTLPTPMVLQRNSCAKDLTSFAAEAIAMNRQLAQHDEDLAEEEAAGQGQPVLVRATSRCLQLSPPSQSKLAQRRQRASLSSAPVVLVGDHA
Method: as §1

CK1γ1(h) = CK1γ1(h) (Homo sapiens, UniProt Q9HCP0); assay: KinaseProfiler kinase selectivity assay; assay type: biochemical
Sequence of CK1γ1(h) (Q9HCP0 whole entry): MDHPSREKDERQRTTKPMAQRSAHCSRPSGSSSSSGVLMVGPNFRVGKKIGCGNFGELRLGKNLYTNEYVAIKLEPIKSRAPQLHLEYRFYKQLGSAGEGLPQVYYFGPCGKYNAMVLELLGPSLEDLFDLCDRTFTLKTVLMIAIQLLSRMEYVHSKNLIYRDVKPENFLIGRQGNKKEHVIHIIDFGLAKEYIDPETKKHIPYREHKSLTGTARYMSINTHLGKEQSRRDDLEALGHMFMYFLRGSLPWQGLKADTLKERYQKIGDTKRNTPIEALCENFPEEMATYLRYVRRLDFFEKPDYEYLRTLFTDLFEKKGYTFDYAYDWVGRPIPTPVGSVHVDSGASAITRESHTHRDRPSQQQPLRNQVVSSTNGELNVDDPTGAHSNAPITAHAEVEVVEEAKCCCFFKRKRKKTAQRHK
Method: as §1

CDK6/cyclinD3(h) = CDK6/cyclinD3(h) (Homo sapiens, UniProt Q00534); assay: KinaseProfiler kinase selectivity assay; assay type: biochemical
Method: as §1

GP = conditions: in vivo

**Q.** How did the “increase of phospho-ERK compared to the DMSO treated cells” value [1] turn out when Cc1ccc2c(Nc3cccc(OC(F)(F)F)c3)nccc2c1Nc1ncccc1-c1ncnc2[nH]cnc12 [LUT014] was run?
**A.** 200-800%

**Q.** What about the “phospho-ERK when added to cells treated with Erlotinib” value [1] of the same compound?
**A.** increased

**Q.** What about the “phospho-ERK when added to cells treated with cetuximab” value [1] of the same compound?
**A.** increased

**Q.** And the remaining activity at 0.01 µM (TAK1(h); Lut014 @ 0.01 μM)?
**A.** 91%

**Q.** What about the remaining activity at 1 µM (TAK1(h); Lut014 @ 1 μM) of the same compound?
**A.** 97%

**Q.** And the remaining activity at 0.01 µM (EGFR(h); Lut014 @ 0.01 μM)?
**A.** 98%

**Q.** What about the remaining activity at 1 µM (EGFR(h); Lut014 @ 1 μM) of the same compound?
**A.** 100%

**Q.** What about the remaining activity at 0.01 µM (Aurora-A(h); Lut014 @ 0.01 μM) of the same compound?
**A.** 95%

**Q.** And the remaining activity at 1 µM (Aurora-A(h); Lut014 @ 1 μM)?
**A.** 97%

**Q.** What about the remaining activity at 0.01 µM (ALK(h); Lut014 @ 0.01 μM) of the same compound?
**A.** 150%

**Q.** And the remaining activity at 1 µM (ALK(h); Lut014 @ 1 μM)?
**A.** 83%

**Q.** And the remaining activity at 0.01 µM (MLK1(h); Lut014 @ 0.01 μM)?
**A.** 109%

**Q.** What about the remaining activity at 1 µM (MLK1(h); Lut014 @ 1 μM) of the same compound?
**A.** 112%

**Q.** And the remaining activity at 0.01 µM (Plk3(h); Lut014 @ 0.01 μM)?
**A.** 85%

**Q.** What about the remaining activity at 1 µM (Plk3(h); Lut014 @ 1 μM) of the same compound?
**A.** 87%

**Q.** And the remaining activity at 0.01 µM (GSK3β(h); Lut014 @ 0.01 μM)?
**A.** 105%

**Q.** What about the remaining activity at 1 µM (GSK3β(h); Lut014 @ 1 μM) of the same compound?
**A.** 98%

**Q.** What about the remaining activity at 0.01 µM (mTOR(h); Lut014 @ 0.01 μM) of the same compound?
**A.** 100%

**Q.** And the remaining activity at 1 µM (mTOR(h); Lut014 @ 1 μM)?
**A.** 96%

**Q.** What about the remaining activity at 0.01 µM (AMPKα1(h); Lut014 @ 0.01 μM) of the same compound?
**A.** 106%

**Q.** What about the remaining activity at 1 µM (AMPKα1(h); Lut014 @ 1 μM) of the same compound?
**A.** 114%

**Q.** And the remaining activity at 0.01 µM (PI3 Kinase (p120γ)(h); Lut014 @ 0.01 μM)?
**A.** 96%

**Q.** And the remaining activity at 1 µM (PI3 Kinase (p120γ)(h); Lut014 @ 1 μM)?
**A.** 83%

**Q.** What about the remaining activity at 0.01 µM (CDK1/cyclinB(h); Lut014 @ 0.01 μM) of the same compound?
**A.** 113%

**Q.** What about the remaining activity at 1 µM (CDK1/cyclinB(h); Lut014 @ 1 μM) of the same compound?
**A.** 102%

**Q.** What about the remaining activity at 0.01 µM (Mnk2(h); Lut014 @ 0.01 μM) of the same compound?
**A.** 112%

**Q.** And the remaining activity at 1 µM (Mnk2(h); Lut014 @ 1 μM)?
**A.** 107%

**Q.** And the remaining activity at 0.01 µM (CK1γ1(h); Lut014 @ 0.01 μM)?
**A.** 94%

**Q.** And the remaining activity at 1 µM (CK1γ1(h); Lut014 @ 1 μM)?
**A.** 101%

**Q.** And the remaining activity at 0.01 µM (CDK6/cyclinD3(h); Lut014 @ 0.01 μM)?
**A.** 100%

**Q.** And the remaining activity at 1 µM (CDK6/cyclinD3(h); Lut014 @ 1 μM)?
**A.** 103%

**Q.** And the dermal sensitization (GP)?
**A.** The test article is not
